# From US20250381198A1 (Melt Pharmaceuticals, Inc., priority 2024, published 2025)
# Assays:
# Assay type in all cases: in vivo, human
# [1] = system: subjects undergoing cataract extraction with lens replacement (CELR); assay: Phase 3 MELT-300: procedural sedation responders (primary endpoint); conditions: for Procedural sedation responder - n: number of subjects
# Experimental: Eligible participants were admitted to the study unit on Day 1.
# Participants received study medication 30 (+5) minutes, without food or water, before planned surgery start (defined as instillation of topical ocular anesthetic gel (3 drops of chloroprocaine hydrochloride ophthalmic gel)).
# The effectiveness of MELT-300 was evaluated after study medication is administered before surgery, in the course of surgery (intraoperatively), and postoperative on Day 1 (end of surgery defined as just prior to drape removal). Efficacy assessments included assessments of sedation, need for rescue medication for sedation, need for rescue medication for pain, and the ability to complete the surgery.
# Achievement of the primary endpoint (i.e., procedural sedation) was evaluated. Success for a procedural sedation responder was defined as a subject that achieved the target sedation level (RSS level 2 or 3) by the start of surgery without the need for rescue sedation medication, no requirement for intraoperative sedation medication, and who was able to complete the surgery.
# Treatment differences were tested using a Pearson's chi-square test where a p-value<0.05 indicated a difference, with a Fisher's exact test being used instead if any expected values were <5. […] A supportive stratified analysis was performed using the Cochran-Mantel-Haenszel (CMH) row-mean score test to stratify by site grouping.
# This sensitivity analysis utilized the last observation (collected after study drug administration) carried forward method for imputing missing preoperative RSS scores just prior to the start of surgery.
# [2] = system: subjects undergoing cataract extraction with lens replacement (CELR); assay: Phase 3: requirement for rescue sedation medication (first key secondary); conditions: for Requirement for rescue sedation medication - n: number of subjects
# Experimental: Analysis of the first key secondary analysis of requirement for rescue sedation medication was performed. Requirement for rescue sedation medication was defined as a subject that received rescue sedation medication during the preoperative or intraoperative period. Group comparisons and statistics were analogous to those for TABLES 42-44.
# [3] = system: subjects undergoing cataract extraction with lens replacement (CELR); assay: Phase 3: preoperative procedural sedation responders (second key secondary); conditions: for Preoperative procedural sedation responder - n: number of subjects
# [4] = system: subjects undergoing cataract extraction with lens replacement (CELR); assay: Phase 3: rescue sedation medication use preoperatively and intraoperatively
# Source text: A secondary analysis of rescue sedation medication use (both preoperatively and intraoperatively) for the ITT analysis set is shown in TABLE 51.
# [5] = system: subjects undergoing cataract extraction with lens replacement (CELR); assay: Phase 3: Ramsay sedation scale (RSS) scores; conditions: ITT analysis set
# Source text: The RSS scores are summarized for: the baseline, just prior to the start of surgery, the minimum and maximum preoperative score, the minimum and maximum intraoperative score, the minimum and maximum postoperative score, and the maximum overall score.
# [6] = system: subjects undergoing cataract extraction with lens replacement (CELR); assay: Phase 3: intraoperative supplemental analgesia; conditions: intention-to-treat analysis set
# [7] = system: subjects undergoing cataract extraction with lens replacement (CELR); assay: Phase 3: patient satisfaction (5-point Likert scale); parameters: key to Patient Satisfaction Scores, Min / Patient Satisfaction Scores, Max: 5=very satisfied; 4=satisfied; 3=neither satisfied nor dissatisfied; 2=dissatisfied; 1=very dissatisfied; conditions: ITT analysis set
# Experimental: Patient satisfaction with the operative experience was measured at the Follow-Up visit using a 5-point Likert scale (5=very satisfied; 4=satisfied; 3=neither satisfied nor dissatisfied; 2=dissatisfied; 1=very dissatisfied). […] The means were compared using 2-sample t-tests and the Satterthwaite method. The proportion of satisfied responses (‘Very Satisfied’ or ‘Satisfied’, pooled) were tested using a Pearson's chi-square test; and a Fisher's exact test was used instead if any expected values were <5.
# [8] = ITT Analysis Set, number of subjects
# [9] = Just prior to the start of surgery
structure (smiles),measurement,setting,value
"Cc1ncc2n1-c1ccc(Cl)cc1C(c1ccccc1F)=NC2 [Midazolam, 8-chloro-6-(2-fluorophenyl)-1-methyl-4H-imidazo[1,5-a][1,4]benzodiazepine]",Procedural sedation responder - %,[1]; All-Treated Analysis Set,65.2%
same,Procedural sedation responder - n,[1]; All-Treated Analysis Set,58
same,Procedural sedation responder - %,[1]; ITT Analysis Set,65.2%
same,Procedural sedation responder - n,[1]; ITT Analysis Set,58
same,Procedural sedation responders (achieved target sedation),"[1]; ITT analysis set, MELT-300 or 3 mg midazolam sublingual tablet before CELR",65.2%
same,Procedural sedation responder - %,[1]; PP Analysis Set,65.2%
same,Procedural sedation responder - n,[1]; PP Analysis Set,58
same,Requirement for rescue sedation medication - %,[2]; All-Treated Analysis Set,33.7%
same,Requirement for rescue sedation medication - n,[2]; All-Treated Analysis Set,30
same,Requirement for rescue sedation medication - %,[2]; ITT Analysis Set,33.7%
same,Requirement for rescue sedation medication - n,[2]; ITT Analysis Set,30
same,Subjects who required rescue sedation medication,"[2]; ITT analysis set, preoperative or intraoperative period",33.7%
same,Requirement for rescue sedation medication - %,[2]; PP Analysis Set,33.7%
same,Requirement for rescue sedation medication - n,[2]; PP Analysis Set,30
same,Subjects who required rescue sedation medication,[2]; PP analysis set,33.7%
same,Subjects who required rescue sedation medication,[2]; all-treated analysis set,33.7%
same,Preoperative procedural sedation responder - %,[3]; All-Treated Analysis Set,73.0%
same,Preoperative procedural sedation responder - n,[3]; All-Treated Analysis Set,65
same,Preoperative procedural sedation responder - %,[3]; ITT Analysis Set,73.0%
same,Preoperative procedural sedation responder - n,[3]; ITT Analysis Set,65
same,Preoperative procedural sedation responders,[3]; ITT analysis set,73.0%
same,Preoperative procedural sedation responder - %,[3]; PP Analysis Set,73.0%
same,Preoperative procedural sedation responder - n,[3]; PP Analysis Set,65
same,Preoperative procedural sedation responders,[3]; PP analysis set,73.0%
same,Preoperative procedural sedation responders,[3]; all-treated analysis set,73.0%
same,Received intraoperative rescue sedation medication - %,[4]; ITT Analysis Set,16.9%
same,Received preoperative rescue sedation medication - %,[4]; ITT Analysis Set,18.0%
same,Received intraoperative rescue sedation medication - n,[4]; [8],15
same,Received preoperative rescue sedation medication - n,[4]; [8],16
same,Subjects who received intraoperative rescue sedation medication,[4]; ITT analysis set,16.9%
same,Subjects who received preoperative rescue sedation medication,[4]; ITT analysis set,18.0%
same,"Ramsay sedation scale score 1, number of subjects",[5]; Baseline,89
same,"Ramsay sedation scale score 1, percent of subjects (in parentheses)",[5]; Baseline,(100.0)
same,"Ramsay sedation scale score 2-3, number of subjects",[5]; Baseline,0
same,"Ramsay sedation scale score 4, number of subjects",[5]; Baseline,0
same,"Ramsay sedation scale score 5+, number of subjects",[5]; Baseline,0
same,"Ramsay sedation scale: Prior rescue sedation medication given, number of subjects",[5]; Baseline,0
same,"Ramsay sedation scale score 1, number of subjects",[5]; [9],7
same,"Ramsay sedation scale score 1, percent of subjects (in parentheses)",[5]; [9],(7.9)
same,"Ramsay sedation scale score 2-3, number of subjects",[5]; [9],65
same,"Ramsay sedation scale score 2-3, percent of subjects (in parentheses)",[5]; [9],(73.0)
same,"Ramsay sedation scale score 4, number of subjects",[5]; [9],0
same,"Ramsay sedation scale score 5+, number of subjects",[5]; [9],0
same,"Ramsay sedation scale: Prior rescue sedation medication given, number of subjects",[5]; [9],17
same,"Ramsay sedation scale: Prior rescue sedation medication given, percent of subjects (in parentheses)",[5]; [9],(19.1)
same,"Ramsay sedation scale score 1, number of subjects",[5]; Maximum intraoperative score,4
same,"Ramsay sedation scale score 1, percent of subjects (in parentheses)",[5]; Maximum intraoperative score,(4.5)
same,"Ramsay sedation scale score 2-3, number of subjects",[5]; Maximum intraoperative score,60
same,"Ramsay sedation scale score 2-3, percent of subjects (in parentheses)",[5]; Maximum intraoperative score,(67.4)
same,"Ramsay sedation scale score 4, number of subjects",[5]; Maximum intraoperative score,0
same,"Ramsay sedation scale score 5+, number of subjects",[5]; Maximum intraoperative score,0
same,"Ramsay sedation scale: Prior rescue sedation medication given, number of subjects",[5]; Maximum intraoperative score,25
same,"Ramsay sedation scale: Prior rescue sedation medication given, percent of subjects (in parentheses)",[5]; Maximum intraoperative score,(28.1)
same,"Ramsay sedation scale score 1, number of subjects",[5]; Maximum postoperative score,45
same,"Ramsay sedation scale score 1, percent of subjects (in parentheses)",[5]; Maximum postoperative score,(50.6)
same,"Ramsay sedation scale score 2-3, number of subjects",[5]; Maximum postoperative score,14
same,"Ramsay sedation scale score 2-3, percent of subjects (in parentheses)",[5]; Maximum postoperative score,(15.7)
same,"Ramsay sedation scale score 4, number of subjects",[5]; Maximum postoperative score,0
same,"Ramsay sedation scale score 5+, number of subjects",[5]; Maximum postoperative score,0
same,"Ramsay sedation scale: Prior rescue sedation medication given, number of subjects",[5]; Maximum postoperative score,29
same,"Ramsay sedation scale: Prior rescue sedation medication given, percent of subjects (in parentheses)",[5]; Maximum postoperative score,(32.6)
same,"Ramsay sedation scale score 1, number of subjects",[5]; Maximum preoperative score,22
same,"Ramsay sedation scale score 1, percent of subjects (in parentheses)",[5]; Maximum preoperative score,(24.7)
same,"Ramsay sedation scale score 2-3, number of subjects",[5]; Maximum preoperative score,67
same,"Ramsay sedation scale score 2-3, percent of subjects (in parentheses)",[5]; Maximum preoperative score,(75.3)
same,"Ramsay sedation scale score 4, number of subjects",[5]; Maximum preoperative score,0
same,"Ramsay sedation scale score 5+, number of subjects",[5]; Maximum preoperative score,0
same,"Ramsay sedation scale: Prior rescue sedation medication given, number of subjects",[5]; Maximum preoperative score,0
same,"Ramsay sedation scale score 1, number of subjects",[5]; Maximum score overall,22
same,"Ramsay sedation scale score 1, percent of subjects (in parentheses)",[5]; Maximum score overall,(24.7)
same,"Ramsay sedation scale score 2-3, number of subjects",[5]; Maximum score overall,67
same,"Ramsay sedation scale score 2-3, percent of subjects (in parentheses)",[5]; Maximum score overall,(75.3)
same,"Ramsay sedation scale score 4, number of subjects",[5]; Maximum score overall,0
same,"Ramsay sedation scale score 5+, number of subjects",[5]; Maximum score overall,0
same,"Ramsay sedation scale: Prior rescue sedation medication given, number of subjects",[5]; Maximum score overall,0
same,"Ramsay sedation scale score 1, number of subjects",[5]; Minimum intraoperative score,4
same,"Ramsay sedation scale score 1, percent of subjects (in parentheses)",[5]; Minimum intraoperative score,(4.5)
same,"Ramsay sedation scale score 2-3, number of subjects",[5]; Minimum intraoperative score,60
same,"Ramsay sedation scale score 2-3, percent of subjects (in parentheses)",[5]; Minimum intraoperative score,(67.4)
same,"Ramsay sedation scale score 4, number of subjects",[5]; Minimum intraoperative score,0
same,"Ramsay sedation scale score 5+, number of subjects",[5]; Minimum intraoperative score,0
same,"Ramsay sedation scale: Prior rescue sedation medication given, number of subjects",[5]; Minimum intraoperative score,25
same,"Ramsay sedation scale: Prior rescue sedation medication given, percent of subjects (in parentheses)",[5]; Minimum intraoperative score,(28.1)
same,"Ramsay sedation scale score 1, number of subjects",[5]; Minimum postoperative score,49
same,"Ramsay sedation scale score 1, percent of subjects (in parentheses)",[5]; Minimum postoperative score,(55.1)
same,"Ramsay sedation scale score 2-3, number of subjects",[5]; Minimum postoperative score,10
same,"Ramsay sedation scale score 2-3, percent of subjects (in parentheses)",[5]; Minimum postoperative score,(11.2)
same,"Ramsay sedation scale score 4, number of subjects",[5]; Minimum postoperative score,0
same,"Ramsay sedation scale score 5+, number of subjects",[5]; Minimum postoperative score,0
same,"Ramsay sedation scale: Prior rescue sedation medication given, number of subjects",[5]; Minimum postoperative score,29
same,"Ramsay sedation scale: Prior rescue sedation medication given, percent of subjects (in parentheses)",[5]; Minimum postoperative score,(32.6)
same,Subjects who received intraoperative supplemental analgesia,[6],1.1%
same,"Patient Satisfaction Scores, Max",[7]; 5-point Likert scale,5
same,"Patient Satisfaction Scores, Mean ± SD",[7]; 5-point Likert scale,4.8 ± 0.55
same,"Patient Satisfaction Scores, Median",[7]; 5-point Likert scale,5.0
same,"Patient Satisfaction Scores, Min",[7]; 5-point Likert scale,2
same,Patient Satisfaction Score 1 = Very Dissatisfied,[7],0 n
